Values joined by “and” are separate entries in the source; they are usually repeats but may differ in a detail not shown here. Equal values may be shown once. Marks after values point to notes of the source that are not given here.
Experiments:
Test in all cases: Checkerboard assay (FIC index)
[1] = system: E. faecalis; format: cell-based, Enterococcus faecalis; details: antibiotic combined with PEP35
Description: (§1) The checkerboard assays were carried out as described by Eliopoulos and Moellering (Chapter 9) in Antibiotic in Laboratory Medicine, Lorian Ed. 1996 as well as Bonapace et al. Diagnostic Microbiology and Infectious Diseases 2002; 44:363-366 and Bonapace et al. Diagnostic Microbiology and Infectious Diseases 2000; 38:43-50. In brief, checkerboard assays were performed in 96 well microtitre trays using an 8-by-8 well configuration. […] 96-well custom designed microtitre plates contained 100 ul/well of cation adjusted Mueller-Hinton broth (eg. for Enterobacteriaceae) with or without lysed horse blood (2-5% V/V) [eg. for S. pneumoniae] and were inoculated to achieve a final concentration of approximately 5×10^5 CFU/ml and incubated in ambient air for 24 hours prior to reading. Colony counts were performed periodically to confirm inocula. Quality control was performed every two weeks using a variety of ATCC QC organisms including; S. pneumoniae 49619, S. aureus 29213, E. faecalis 29212, E. coli 25922 and P. aeruginosa 27853. For all antimicrobials as well as PEP35, CLSI criteria was used.
(§2) The fractional inhibitory concentration index (FIC index) was used to interpret synergy, antagonism or additivity/indifference. FIC index=FIC of drug A+FIC of drug B where:
(§3) The FIC of drug A and drug B is calculated as follows, FIC drug A=MIC of drug A in combination/MIC of drug A alone and FIC of drug B=MIC of drug B in combination/MIC of drug B alone. Synergy is defined as FIC index ≦0.5, additivity/indifference FIC >0.5-4 and antagonism FIC index >4.
(§4) Antimicrobials used included PEP35, cefazolin, ceftriaxone, vancomycin, linezolid, tigecycline and daptomycin versus Gram-positive cocci and PEP35, gentamicin, levofloxacin, piperacillin/tazobactam, meropenem and colistin (Polymyxin E) versus Gram-negative bacilli. These agents were obtained as laboratory grade powders from their respective manufacturers. Stock solutions were prepared and dilutions made as described by the Clinical Laboratory Standards Institute (2005 CLSI).
(§5) Organisms included Gram-positive cocci (2 strains of each): Methicillin-susceptible Staphylococcus aureus (MSSA), community-associated (CA) and healthcare-associated (HA) methicillin-resistant Staphylococcus aureus (MRSA), vancomycin-intermediate Staphylococcus aureus (VISA), vancomycin-resistant Staphylococcus aureus (VRSA), methicillin-resistant Staphylococcus epidermidis (MRSE), Streptococcus pyogenes, Streptococcus agalactiae, Streptococcus pneumoniae, Enterococcus faecalis, Enterococcus faecium and vancomycin-resistant enterococcus (VRE). Gram-negative bacilli tested (2 strains of each) included: E. coli, Pseudomonas aeruginosa, Klebsiella pneumoniae, K. oxytoca, Enterobacter cloacae, P. mirabilis and Stenotrophomonas maltophilia. MIC testing, following two subcultures from frozen stock were determined by the CLSI 2005 approved broth microdilution method.

[2] = system: S. agalactiae; format: cell-based, Streptococcus agalactiae; details: antibiotic combined with PEP35
Description: as §1, §2, §3, §4, §5

[3] = system: VISA; format: cell-based, Staphylococcus aureus;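 further: each agent diluted from 0.03 to 4 times its MIC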
Description: (§6) Checkerboard assays were carried out as described by Bonapace et al.
as §1, with “Diagnostic” for “The checkerboard assays were carried out as described by Eliopoulos and Moellering (Chapter 9) in Antibiotic in Laboratory Medicine, Lorian Ed. 1996 as well as Bonapace et al. Diagnostic”, “2002; 44:363-366.” for “2002; 44:363-366 and Bonapace et al. Diagnostic Microbiology and Infectious Diseases 2000; 38:43-50.”, “27853. […] All peptides were assessed for synergy with β-lactams and vancomycin.” for “27853.”, “as the peptides,” for “as PEP35,”, “criteria were” for “criteria was”
as §2
(§7) The FIC of drug A and drug B was calculated as follows, FIC drug A=MIC of drug A in combination/MIC of drug A alone and FIC of drug B=MIC of drug B in combination/MIC of drug B alone. Synergy was defined as FIC index ≦0.5, additivity/indifference defined as a FIC between 0.5 and 4 and antagonism defined as an FIC index >4.
as §1, §3, §4
(§8) Organisms included Gram-positive cocci (2 strains of each): Methicillin-susceptible Staphylococcus aureus (MSSA), community-associated (CA) and healthcare-associated (HA) methicillin-resistant Staphylococcus aureus (MRSA), vancomycin-intermediate Staphylococcus aureus (VISA), vancomycin-resistant Staphylococcus aureus (VRSA), methicillin-resistant Staphylococcus epidermidis (MRSE), Streptococcus pyogenes, Streptococcus agalactiae, Streptococcus pneumoniae, Enterococcus faecalis, Enterococcus faecium and vancomycin-resistant enterococcus (VRE). […]

[4] = system: MSSA; format: cell-based, Staphylococcus aureus;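 further: each agent diluted from 0.03 to 4 times its MIC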
Description: as §6
as §1, with “Diagnostic” for “The checkerboard assays were carried out as described by Eliopoulos and Moellering (Chapter 9) in Antibiotic in Laboratory Medicine, Lorian Ed. 1996 as well as Bonapace et al. Diagnostic”, “2002; 44:363-366.” for “2002; 44:363-366 and Bonapace et al. Diagnostic Microbiology and Infectious Diseases 2000; 38:43-50.”, “27853. […] All peptides were assessed for synergy with β-lactams and vancomycin.” for “27853.”, “as the peptides,” for “as PEP35,”, “criteria were” for “criteria was”
as §2, §7, §1, §3, §4, §8

[5] = system: S. pyogenes; format: cell-based, Streptococcus pyogenes; details: antibiotic combined with PEP35
Description: as §1, §2, §3, §4, §5

[6] = antibiotic combined with PEP35, VISA 92
[7] = antibiotic combined with PEP35, VISA 95
[8] = β-lactam combined with HybPEP35-1, VISA 96
[9] = β-lactam combined with PEP-52, VISA 96
[10] = β-lactam combined with Scrambled PEP35, VISA 96
[11] = antibiotic combined with PEP35, MSSA 83424
[12] = β-lactam combined with HybPEP35-1, MSSA 79333
[13] = β-lactam combined with PEP-52, MSSA 79333
[14] = β-lactam combined with Scrambled PEP35, MSSA 79333

Row | SMILES | Avg ΣFIC (range) ([1]; E. faecalis 70468) | Avg ΣFIC (range) ([1]; E. faecalis 78145) | Avg ΣFIC (range) ([2]; S. agalactiae 80870 (MHB)) | Avg ΣFIC (range) ([2]; S. agalactiae 81262 (MHB)) | Avg ΣFIC (range) [3, 6] | Avg ΣFIC (range) [3, 7] | Avg ΣFIC (range) [3, 8] | Avg ΣFIC (range) [3, 9] | Avg ΣFIC (range) [3, 10] | Avg ΣFIC (range) [4, 11] | Avg ΣFIC (range) [4, 12] | Avg ΣFIC (range) [4, 13] | Avg ΣFIC (range) [4, 14] | Avg ΣFIC (range) ([5]; S. pyogenes 77765 (MHB)) | Avg ΣFIC (range) ([5]; S. pyogenes 79531 (MHB)) | Avg ΣFIC (range) ([3]; antibiotic combined with PEP35, VISA 96) | Avg ΣFIC (range) ([4]; antibiotic combined with PEP35, MSSA 79333)
1 | Cc1nnc(SCC2=C(C(=O)O)N3C(=O)[C@@H](NC(=O)Cn4cnnn4)[C@H]3SC2)s1 [Cefazolin] | 0.94 (0.56-1.25) | 0.93 (0.62-1.06) | 0.92 (0.56-1.25) | 1.10 (1-1.25) | 0.33 (0.18-0.53) and 0.45 (0.18-1.015) | 0.49 (0.31-0.62) and 0.37 (0.18-0.56) | 0.30 | >1* | 0.30 | 1.02 (0.75-1.25) | 0.57 | >1* | 0.57 | 1.04 (0.75-1.25) | 1.19 (1.03-1.5) |  | 
2 | CO/N=C(\C(=O)N[C@@H]1C(=O)N2C(C(=O)O)=C(CSc3nc(=O)c(=O)[nH]n3C)CS[C@H]12)c1csc(N)n1 [Ceftriaxone] | 1.1 (1-1.25) | 0.72 (0.53-1.12) | 0.99 (0.53-1.25) | 1.05 (0.75-1.25) | 0.52 (0.28-1.06) | 0.28 (0.09-0.56) and 0.37 (0.18-0.56) | 0.26 | >1* | 0.26 | 0.80 (0.5-1.12) | 0.98 | >1* | 0.98 | 1.19 (0.03-1.5) | 1.19 (1.03-1.5) |  | 
3 | CCCCCCCCCC(=O)N[C@@H](Cc1c[nH]c2ccccc12)C(=O)N[C@H](CC(N)=O)C(=O)N[C@@H](CC(=O)O)C(=O)N[C@@H]1C(=O)NCC(=O)N[C@@H](CCCN)C(=O)N[C@@H](CC(=O)O)C(=O)N[C@H](C)C(=O)N[C@@H](CC(=O)O)C(=O)NCC(=O)N[C@H](CO)C(=O)N[C@@H]([C@H](C)CC(=O)O)C(=O)N[C@@H](CC(=O)c2ccccc2N)C(=O)O[C@@H]1C [Daptomycin, daptomycin] | 1.5 (1-2.25) | 1.39 (1.03-2.25) | 0.83 (0.53-1.12) | 1.69 (1.06-2.5) | 1.54 (1.015-2.5) | 1.23 (1.06-1.5) |  |  |  | 1.58 (1.015-2.5) |  |  |  | 1.19 (1.03-1.5) | 1.19 (1.03-1.5) | 1.21 (1.03-1.5) | 1.19 (1.03-1.5)
